Experimental data published in ChEMBL document CHEMBL3608269, “Triazole-Linked Glycolipids Enhance the Susceptibility of MRSA to β-Lactam Antibiotics” (ACS Med Chem Lett, 2015).
Active and inactive are the calls of the source. The calls are words filed in the database; no cut-off is given here.

Columns and labels:
Staphylococcus aureus [1] = test: Downregulation of mecA mRNA expression in methicillin-resistant Staphylococcus aureus ATCC 43300 at 32 ug/ml after 4 hrs by RT-PCR analysis; assay type: functional, organism-based
Staphylococcus aureus [2] = test: Downregulation of mecA mRNA expression in methicillin-resistant Staphylococcus aureus ATCC 43300 at 32 ug/ml after 4 hrs by RT-PCR analysis in presence of oxacillin; assay type: functional, organism-based
Staphylococcus aureus [3] = test: Potentiation of oxacillin-mediated antibacterial activity against methicillin-resistant Staphylococcus aureus R308 clinical isolate at 32 ug/ml after 20 to 24 hrs by CLSI method; assay type: functional
Staphylococcus aureus [4] = test: Potentiation of oxacillin-mediated antibacterial activity against methicillin-resistant Staphylococcus aureus R314 clinical isolate assessed as decrease in oxacillin MIC at 32 ug/ml after 20 to 24 hrs by CLSI method relative to control; assay type: functional
Staphylococcus aureus [5] = test: Potentiation of oxacillin-mediated antibacterial activity against methicillin-resistant Staphylococcus aureus R313 clinical isolate assessed as decrease in oxacillin MIC at 32 ug/ml after 20 to 24 hrs by CLSI method relative to control; assay type: functional
Staphylococcus aureus [6] = test: Antibacterial activity against methicillin-resistant Staphylococcus aureus ATCC 43300 assessed as change in bacterial surface at 32 ug/ml after 4 hrs by scanning electron microscopic analysis; assay type: functional, organism-based
Staphylococcus aureus [7] = test: Cellular uptake in methicillin-resistant Staphylococcus aureus ATCC 43300 by HPLC analysis in presence of oxacillin; assay type: ADME, organism-based; settings: in vivo
Staphylococcus aureus [8] = test: Potentiation of oxacillin-mediated antibacterial activity against methicillin-resistant Staphylococcus aureus R53 clinical isolate assessed as decrease in oxacillin MIC at 16 ug/ml after 20 to 24 hrs by CLSI method relative to control; assay type: functional
MEF = test: Cytotoxicity against MEF assessed as cell viability at 8 to 128 ug/ml by MTS assay; assay type: cell-based; settings: mouse
Staphylococcus aureus [9] = test: Potentiation of ceftazidime mediated antibacterial activity against methicillin-resistant Staphylococcus aureus ATCC 43300 assessed as decrease in ceftazidime MIC at 32 ug/ml by checkerboard method relative to control; assay type: functional
Staphylococcus aureus [10] = test: Potentiation of oxacillin-mediated antibacterial activity against methicillin-resistant Staphylococcus aureus R308 clinical isolate assessed as decrease in oxacillin MIC at 32 ug/ml after 20 to 24 hrs by CLSI method relative to control; assay type: functional
Staphylococcus aureus [11] = test: Potentiation of oxacillin-mediated antibacterial activity against methicillin-resistant Staphylococcus aureus R16 clinical isolate at 32 ug/ml after 20 to 24 hrs by CLSI method; assay type: functional
Staphylococcus aureus [12] = test: Potentiation of oxacillin-mediated antibacterial activity against methicillin-resistant Staphylococcus aureus R50 clinical isolate at 16 ug/ml after 20 to 24 hrs by CLSI method; assay type: functional
Staphylococcus aureus [13] = test: Potentiation of oxacillin-mediated antibacterial activity against methicillin-resistant Staphylococcus aureus R15 clinical isolate assessed as decrease in oxacillin MIC at 32 ug/ml after 20 to 24 hrs by CLSI method relative to control; assay type: functional
Staphylococcus aureus [14] = test: Potentiation of oxacillin-mediated antibacterial activity against methicillin-resistant Staphylococcus aureus R314 clinical isolate at 32 ug/ml after 20 to 24 hrs by CLSI method; assay type: functional
Staphylococcus aureus [15] = test: Potentiation of oxacillin-mediated antibacterial activity against methicillin-resistant Staphylococcus aureus R49 clinical isolate assessed as decrease in oxacillin MIC at 16 ug/ml after 20 to 24 hrs by CLSI method relative to control; assay type: functional
Staphylococcus aureus [16] = test: Potentiation of oxacillin-mediated antibacterial activity against methicillin-resistant Staphylococcus aureus R306 clinical isolate assessed as decrease in oxacillin MIC at 32 ug/ml after 20 to 24 hrs by CLSI method relative to control; assay type: functional
Staphylococcus aureus [17] = test: Potentiation of cephalexin-mediated antibacterial activity against methicillin-resistant Staphylococcus aureus ATCC 43300 assessed as decrease in cephalexin MIC at 32 ug/ml by checkerboard method relative to control; assay type: functional
Staphylococcus aureus [18] = test: Potentiation of cefotiam-mediated antibacterial activity against methicillin-resistant Staphylococcus aureus ATCC 43300 assessed as decrease in cefotiam MIC at 32 ug/ml by checkerboard method relative to control; assay type: functional
Staphylococcus aureus [19] = test: Potentiation of cefepime mediated antibacterial activity against methicillin-resistant Staphylococcus aureus ATCC 43300 assessed as decrease in cefepime MIC at 32 ug/ml by checkerboard method relative to control; assay type: functional
Staphylococcus aureus [20] = test: Potentiation of oxacillin-mediated antibacterial activity against methicillin-resistant Staphylococcus aureus R304 clinical isolate at 32 ug/ml after 20 to 24 hrs by CLSI method; assay type: functional

In the case of CCCCCCCCCCCCOCc1cn([C@@H]2O[C@H](CO)[C@@H](O)[C@H](O)[C@H]2O)nn1, the Activity (Staphylococcus aureus [1]) was “Active”, the Activity (Staphylococcus aureus [2]) was “Active” and the MIC (Staphylococcus aureus [3]) was 256 µg/mL. The MIC (Staphylococcus aureus [4]) was 32 µg/mL, the MIC (Staphylococcus aureus [5]) was 1 µg/mL and the Activity (Staphylococcus aureus [6]) was “inactive”. The Drug uptake (Staphylococcus aureus [7]) was “Active”, the MIC (Staphylococcus aureus [8]) was 8 µg/mL and the Activity (MEF) was “Non-toxic”. The “fold change (FC)” value (Staphylococcus aureus [9]) was “<=256”, the MIC (Staphylococcus aureus [10]) was 4 µg/mL and the MIC (Staphylococcus aureus [11]) was 64 µg/mL. The MIC (Staphylococcus aureus [12]) was under 1 µg/mL, the MIC (Staphylococcus aureus [13]) was 2 µg/mL and the MIC (Staphylococcus aureus [14]) was 16 µg/mL. For the same compound, the MIC (Staphylococcus aureus [15]) was 8 µg/mL, the MIC (Staphylococcus aureus [16]) was 16 µg/mL and the “fold change (FC)” value (Staphylococcus aureus [17]) was “<=256”. The “fold change (FC)” value (Staphylococcus aureus [18]) was “<=256”, the “fold change (FC)” value (Staphylococcus aureus [19]) was “<=256” and the MIC (Staphylococcus aureus [20]) was 256 µg/mL.
